Patent US10208043B2, “Methods for inhibiting fascin” (Novita Pharmaceuticals, Inc., priority 2012, dated 2019)

What was measured:
4T1 breast tumor cells [1] = experiment: Tumor metastasis in mouse models (lung metastasis, 6-thioguanine clonogenic assay); assay type: in vivo, Balb/c mice; details: 4T1 cells in mammary fat-pad, n=5, P<0.01
Method: Lung metastasis was measured by the 6-thioguanine clonogenic assay. […] Results are mean±SD (n=5). *, P<0.01.
Tumor cell migration is essential for tumor metastasis. […] Tumor cells (4T1 breast tumor cells) were injected into the mammary fat-pad of mice. The metastasis of these breast tumor cells from the mammary gland to the lung was monitored by the clonogenic assay.
Balb/c mice were purchased from Charles River. All animal procedures were approved by the Animal Care and Use Committees of the Weill Cornell Medical College and performed in accordance with institutional polices. For xenograft tumor metastasis studies, 5×10^5 4T1 cells were suspended in 100 μL PBS and injected subcutaneously into the mammary glands of 6-8 week old female Balb/c mice. Tumor incidence was monitored for 21 days after injection. Tumor size was measured three times a week, and the volume was calculated using the formula length×width^2×0.5. Compound treatment was initiated 7 days after tumor implantation; animals were administered daily with indicated dose for 2 weeks. On day 28, the mice were sacrificed. Numbers of metastatic 4T1 cells in lungs were determined by the clonogenic assay. […] Data are expressed as mean±S.D. and analyzed by Student's t test with significance defined as p<0.05.

[2] = system: MDA-MB-231 breast tumor cells; experiment: Boyden-chamber cell migration assay, MDA-MB-231; assay type: cell-based; details: Homo sapiens
Method: (§1) Since fascin is critical for tumor cell migration, inhibitors of fascin should block tumor cell migration. Representative compounds were selected from the above-identified fascin inhibitors to test their abilities on inhibition of tumor cell migration (See Table 2). […] The cell lines used are listed below.
(§2) Exemplifying procedure: MDA-MB-231 cells (5×10^4) or 4T1 Cells (1×10^5) suspended in 100 μL starvation medium were added to the upper chamber of an insert (6.5 mm diameter, 8 μm pore size; Becton Dickson), and the insert was placed in a 24-well plate containing 700 μL starvation medium with or without 10% FBS. […] Migration assays were performed for 6 h and cells were fixed with 3.7% formaldehyde. Cells were stained with crystal violet staining solution, and cells on the upper side of the insert were removed with a cotton swab. Three randomly selected fields (×10 objectives) on the lower side of the insert were photographed, and the migrated cells were counted. Migration was expressed as average number of migrated cells in a field.

LLC lung tumor cells = experiment: Boyden-chamber cell migration assay, LLC; assay type: cell-based
Method: (§3) Since fascin is critical for tumor cell migration, inhibitors of fascin should block tumor cell migration. Representative compounds were selected from the above-identified fascin inhibitors to test their abilities on inhibition of tumor cell migration (See Table 2). […] Therefore, tumor cells with fascin expression are likely sensitive to these fascin inhibitors. The cell lines used are listed below.
(§4) Exemplifying procedure: MDA-MB-231 cells (5×10^4) or 4T1 Cells (1×10^5) suspended in 100 μL starvation medium were added to the upper chamber of an insert (6.5 mm diameter, 8 μm pore size; Becton Dickson), and the insert was placed in a 24-well plate containing 700 μL starvation medium with or without 10% FBS. When used, inhibitors were added to the lower chamber. Migration assays were performed for 6 h and cells were fixed with 3.7% formaldehyde. Cells were stained with crystal violet staining solution, and cells on the upper side of the insert were removed with a cotton swab. Three randomly selected fields (×10 objectives) on the lower side of the insert were photographed, and the migrated cells were counted. Migration was expressed as average number of migrated cells in a field.

[3] = system: PC-3 prostate tumor cells; experiment: Boyden-chamber cell migration assay, PC-3; assay type: cell-based
Method: as §3, §4

[4] = system: DU145 prostate tumor cells; experiment: Boyden-chamber cell migration assay, DU145; assay type: cell-based; details: Homo sapiens, DU-145
Method: as §3, §4

fascin = fascin (Homo sapiens (Human), UniProt Q16658); experiment: High throughput fascin inhibition assay (actin bundling, F-actin imaging); assay type: biochemical
Method: A high throughput assay was developed to screen for fascin specific inhibitors. Purified polymerized F-actin with or without fascin were mixed and incubated to allow actin bundle formation. F-actin polymers were then bound to the poly-D-lysine coated plates. […] Four images were taken from each well and the average fiber length was analyzed for each tested compound.
Recombinant human fascin 1 was expressed as a GST fusion protein in BL21 Escherichia coli. One liter of 2YT medium with ampicillin was inoculated overnight with 3 mL of BL21/DE3 culture transformed with pGEX4T-fascin 1 plasmid and grown at 37° C. until attenuance at 600 nm (D600) reached about 0.8. The culture was then transferred to 18° C. and induced by the addition of 0.1 mM isopropyl β-d-thiogalactoside (IPTG) for 12 h. Bacteria were harvested by centrifugation at 5,000 r.p.m. for 10 min. The pellets were suspended in 30 mL of PBS supplemented with 0.2 mM PMSF, 1 mM DTT, 1% (v/v) Triton X-100 and 1 mM EDTA. After sonication, the suspension was centrifuged at 15,000 r.p.m. for 30 min to remove the cell debris. The supernatant was then incubated for 2 h with 4 mL of glutathione beads (Sigma) at 4° C. After extensive washing with PBS, the beads were resuspended in 10 mL of thrombin cleavage buffer (20 mM Tris-HCl pH 8.0, 150 mM NaCl, 2 mM CaCl2, 1 mM DTT). Fascin was released from the beads by incubation overnight with 40-100 U of thrombin at 4° C. After centrifugation, 0.2 mM PMSF was added to the supernatant to inactivate the remnant thrombin activity. The fascin protein was further concentrated with a Centricon® (Boca Raton, Fla.) filter to about 50 mg/mL.
About 150,000 compounds were screened. […] Purified fascin protein (15 μL of 0.5 μM) in buffer (100 mM KCl, 20 mM Tris/HCl, pH 7.5, 2 mM MgCl2) was added into each well of a clear 384-well flat-bottom plate (Corning) using Thermo Multidrop Combi (Fisher). Compound ([…]) solutions (5 mM stock) from various chemical libraries were pin transferred from stock 384-well plates into the 384-well assay plates and incubated for 30 min. Then 15 μL of 0.5 μM polymerized actin (in 100 mM KCl, 20 mM Tris/HCl, pH 7.5, 2 mM MgCl2, 1 mM DTT, 1 mM ATP) (Cytoskeleton Inc.) was added, resulting in 30 μM final concentration for chemical compounds. […] Mixed solution (25 μL) was then transferred to one well in a black 384-well plate coated with poly-D-lysine, and stained actin bundles or F-actin would stick onto the poly-D-lysine plates. After the plates were thoroughly washed with 1×PBS for 3 times, the plate was imaged using an ImageXpress Micro High Content Screening System (Molecular devices). The images were processed and analyzed using MetaMorph software. The raw image data for each well was background-corrected by subtraction of the median intensities across all wells on the plate. The background-corrected data was used to compute the bundle length for each well. The negative control wells were employed for quality control: multiple DMSO-only control wells (16 wells/plate) were present on each assay plate.

4T1 breast tumor cells [5] = experiment: Boyden-chamber cell migration assay, 4T1; assay type: cell-based
Method: as §1, §2

[6] = Actin + Fascin + compound at 30 μM

IC50 [2] [µM]	IC50 (LLC lung tumor cells) [µM]	IC50 [3] [µM]	IC50 [4] [µM]	IC50 (fascin) [µM]	fiber growth (fascin; 30 μM)	Average fiber length (fascin; [6]) [arbitrary unit]	Average fiber thickness (fascin; [6]) [arbitrary unit]	IC50 (4T1 breast tumor cells [5]) [µM]	Compound	tumor metastasis from mammary gland to lung (4T1 breast tumor cells [1]; 8 mg/kg daily for 2 weeks)	tumor metastasis from mammary gland to lung (4T1 breast tumor cells [1]; 30 mg/kg daily for 2 weeks)
25	25	25	25	0.652	inhibited fiber growth	0.39	0.35	20	O=[N+]([O-])c1ccc(Cl)c(S(=O)(=O)Nc2nc3ccc(Cl)cc3s2)c1 [Compound 3, 2-chloro-N-(6-chlorobenzo[d]thiazol-2-yl)-5-nitrobenzenesulfonamide]	decreased the tumor metastasis	
				0.807					COc1ccc(S(=O)(=O)Nc2cc(Sc3nc[nH]n3)c(O)c3ccccc23)cc1 [Compound 10, N-(3-(1H-1,2,4-triazol-3-ylthio)-4-hydroxynaphthalen-1-yl)-4-methoxybenzenesulfonamide]		decreased the tumor metastasis
30				0.5				50	C/N=c1/nc(-c2ccccc2)n(-c2ccccc2)s1 [Compound 4, (Z)-N-(2,3-diphenyl-1,2,4-thiadiazol-5(2H)-ylidene)methanamine]		
